Paper PMC7044277 (Nature Communications, 2020)
Values joined by “and” are separate entries in the source; they are usually repeats but may differ in a detail not shown here. Equal entries are not always repeated.

What was measured:
Assay type in all cases: cell-based
[1] = biological target: T1, 320 non-olfactory GPCRs (Homo sapiens, UniProt O00254)
T1 construct: expressed in transfected cells; host or cells: HTLA cells

[2] = biological target: 320 non-olfactory GPCRs (Homo sapiens, UniProt P21462)
[3] = biological target: 320 non-olfactory GPCRs (Homo sapiens, UniProt P21918)
[4] = biological target: T2, 320 non-olfactory GPCRs (Homo sapiens, UniProt P49286); conditions: receptor MTNR1B; replicate values, Fig_4g
T2 construct: expressed in transfected cells; host or cells: HTLA cells
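Throughout, for Fold of Basal: compound tested at 1 µM final concentration.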
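Throughout, for GPCRome agonism screen response: fold over basal response of each receptor without drug.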

T2 sequence (P49286 whole entry): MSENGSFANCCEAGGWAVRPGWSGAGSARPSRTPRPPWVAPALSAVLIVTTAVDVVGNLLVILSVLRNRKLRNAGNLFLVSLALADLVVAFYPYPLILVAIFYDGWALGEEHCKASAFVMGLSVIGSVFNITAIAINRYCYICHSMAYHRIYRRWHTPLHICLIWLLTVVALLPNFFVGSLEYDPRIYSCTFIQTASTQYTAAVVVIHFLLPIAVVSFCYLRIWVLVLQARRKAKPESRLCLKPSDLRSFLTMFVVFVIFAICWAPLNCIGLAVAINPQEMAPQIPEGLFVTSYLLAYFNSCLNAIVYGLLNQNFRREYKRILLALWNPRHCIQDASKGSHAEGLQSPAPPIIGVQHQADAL
Chain of 320 non-olfactory GPCRs (Homo sapiens, UniProt P21462) (P21462 whole entry): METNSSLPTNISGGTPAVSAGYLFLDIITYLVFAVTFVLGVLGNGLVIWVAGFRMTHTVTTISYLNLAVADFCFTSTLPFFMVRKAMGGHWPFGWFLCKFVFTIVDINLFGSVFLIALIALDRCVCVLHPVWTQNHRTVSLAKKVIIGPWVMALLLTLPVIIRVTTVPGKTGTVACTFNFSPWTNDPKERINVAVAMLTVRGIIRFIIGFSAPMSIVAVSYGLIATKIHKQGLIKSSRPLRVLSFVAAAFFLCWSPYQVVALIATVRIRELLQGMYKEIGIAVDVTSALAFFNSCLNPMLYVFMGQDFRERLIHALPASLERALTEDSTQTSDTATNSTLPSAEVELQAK
T1 sequence (O00254 22-374): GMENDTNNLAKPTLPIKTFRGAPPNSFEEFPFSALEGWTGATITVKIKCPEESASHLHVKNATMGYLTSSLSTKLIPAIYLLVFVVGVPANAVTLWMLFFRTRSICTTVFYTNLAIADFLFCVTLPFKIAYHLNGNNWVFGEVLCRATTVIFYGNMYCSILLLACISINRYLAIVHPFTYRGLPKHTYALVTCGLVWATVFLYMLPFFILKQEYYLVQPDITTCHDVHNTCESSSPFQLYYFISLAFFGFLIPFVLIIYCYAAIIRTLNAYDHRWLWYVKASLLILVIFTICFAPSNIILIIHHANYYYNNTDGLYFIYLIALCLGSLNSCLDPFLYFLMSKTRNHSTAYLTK
Chain of 320 non-olfactory GPCRs (Homo sapiens, UniProt P21918) (P21918 whole entry): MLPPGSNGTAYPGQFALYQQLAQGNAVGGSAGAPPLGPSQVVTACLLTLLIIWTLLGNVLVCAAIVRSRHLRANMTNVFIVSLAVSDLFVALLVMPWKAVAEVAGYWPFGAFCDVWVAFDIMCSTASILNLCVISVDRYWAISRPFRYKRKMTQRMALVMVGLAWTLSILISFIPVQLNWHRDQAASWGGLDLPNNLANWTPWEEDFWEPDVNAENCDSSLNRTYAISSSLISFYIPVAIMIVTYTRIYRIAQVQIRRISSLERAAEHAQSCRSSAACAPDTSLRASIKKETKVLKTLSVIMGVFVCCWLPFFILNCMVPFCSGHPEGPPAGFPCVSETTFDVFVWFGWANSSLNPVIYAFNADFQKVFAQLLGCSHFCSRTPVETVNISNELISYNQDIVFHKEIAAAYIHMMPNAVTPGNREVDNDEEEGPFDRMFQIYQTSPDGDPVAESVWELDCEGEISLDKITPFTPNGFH

CCOc1cccc2cc(C(C)NCC3(O)CCCCC3)oc12 (stereo not shown) [O4LE6]
Fold of Basal [1]: 0.8171 and 1.363 and 1.064 and 0.8535
Fold of Basal [2]: 0.6589 and 0.3791 and 0.4925 and 0.3481
Fold of Basal [3]: 1.173 and 0.6004 and 0.7155 and 0.7884
GPCRome agonism screen response [4]: 1.769 and 0.5073 and 1.312 and 1.409
